This passage reports AC50 results from ChEMBL document CHEMBL5291721, “A preclinical secondary pharmacology resource illuminates target-adverse drug reaction associations of marketed drugs” (Nat Commun, 2023).

Assay [1] deals with Beta-1 adrenergic receptor (Homo sapiens, UniProt P08588). Type of assay: functional.
Assay [2] has as its target T1, Alpha-2C adrenergic receptor (Homo sapiens, UniProt P18825).
T1 sequence (P18825 whole entry): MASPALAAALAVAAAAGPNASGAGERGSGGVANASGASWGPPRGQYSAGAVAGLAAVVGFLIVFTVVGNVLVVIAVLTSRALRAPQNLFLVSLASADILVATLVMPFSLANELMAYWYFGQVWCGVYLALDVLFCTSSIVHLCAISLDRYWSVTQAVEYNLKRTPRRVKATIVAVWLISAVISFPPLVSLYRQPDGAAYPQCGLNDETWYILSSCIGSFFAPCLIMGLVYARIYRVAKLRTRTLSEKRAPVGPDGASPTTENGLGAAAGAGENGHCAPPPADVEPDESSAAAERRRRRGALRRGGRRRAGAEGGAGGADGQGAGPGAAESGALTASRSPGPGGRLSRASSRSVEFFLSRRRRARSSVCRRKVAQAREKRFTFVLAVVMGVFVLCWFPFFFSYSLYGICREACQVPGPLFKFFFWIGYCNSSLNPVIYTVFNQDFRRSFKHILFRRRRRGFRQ
Type of assay: functional.

The target of assay [3] is T2, 5-hydroxytryptamine receptor 1A (Homo sapiens, UniProt P08908).
T2 sequence (P08908 whole entry): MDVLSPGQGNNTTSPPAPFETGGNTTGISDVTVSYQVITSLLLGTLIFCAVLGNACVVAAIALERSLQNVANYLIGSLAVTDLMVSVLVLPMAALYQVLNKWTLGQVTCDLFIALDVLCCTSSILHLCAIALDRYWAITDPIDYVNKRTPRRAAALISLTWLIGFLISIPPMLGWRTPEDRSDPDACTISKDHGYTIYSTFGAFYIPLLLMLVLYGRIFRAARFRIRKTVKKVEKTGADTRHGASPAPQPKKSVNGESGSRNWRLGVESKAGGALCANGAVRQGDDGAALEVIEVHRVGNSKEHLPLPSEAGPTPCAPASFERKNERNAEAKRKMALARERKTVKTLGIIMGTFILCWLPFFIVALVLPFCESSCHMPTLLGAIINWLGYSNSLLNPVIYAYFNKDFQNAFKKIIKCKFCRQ
Type of assay: functional, cell-based.

Assay [4] concerns the target T3, B2 bradykinin receptor (Homo sapiens, UniProt P30411).
T3 sequence (P30411 whole entry): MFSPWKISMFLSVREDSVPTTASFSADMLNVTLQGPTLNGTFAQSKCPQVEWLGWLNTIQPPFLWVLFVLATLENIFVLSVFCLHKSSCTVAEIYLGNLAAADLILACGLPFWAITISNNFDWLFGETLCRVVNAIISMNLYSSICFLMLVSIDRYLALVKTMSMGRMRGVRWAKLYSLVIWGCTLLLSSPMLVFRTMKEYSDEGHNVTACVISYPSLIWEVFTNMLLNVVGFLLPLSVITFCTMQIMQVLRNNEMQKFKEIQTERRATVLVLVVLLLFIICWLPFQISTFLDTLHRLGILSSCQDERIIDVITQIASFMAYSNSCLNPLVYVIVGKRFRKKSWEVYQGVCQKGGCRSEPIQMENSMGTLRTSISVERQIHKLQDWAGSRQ

The target of assay [5] is T4, Muscarinic acetylcholine receptor M1 (Homo sapiens, UniProt P11229).
T4 sequence (P11229 whole entry): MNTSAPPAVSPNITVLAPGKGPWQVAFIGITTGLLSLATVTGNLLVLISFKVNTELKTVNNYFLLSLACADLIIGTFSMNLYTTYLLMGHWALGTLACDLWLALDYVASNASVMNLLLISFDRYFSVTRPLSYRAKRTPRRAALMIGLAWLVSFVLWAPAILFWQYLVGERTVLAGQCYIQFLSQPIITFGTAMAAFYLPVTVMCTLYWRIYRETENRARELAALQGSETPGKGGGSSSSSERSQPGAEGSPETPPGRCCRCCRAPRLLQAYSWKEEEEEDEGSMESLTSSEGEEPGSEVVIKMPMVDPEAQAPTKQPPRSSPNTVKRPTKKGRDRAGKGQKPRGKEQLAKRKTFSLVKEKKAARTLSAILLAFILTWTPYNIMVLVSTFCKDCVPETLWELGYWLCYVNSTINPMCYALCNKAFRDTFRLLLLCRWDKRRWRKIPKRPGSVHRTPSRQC
Type of assay: functional.

Assay [6] addresses T5, Thromboxane A2 receptor (Homo sapiens, UniProt P21731).
T5 sequence (P21731 whole entry): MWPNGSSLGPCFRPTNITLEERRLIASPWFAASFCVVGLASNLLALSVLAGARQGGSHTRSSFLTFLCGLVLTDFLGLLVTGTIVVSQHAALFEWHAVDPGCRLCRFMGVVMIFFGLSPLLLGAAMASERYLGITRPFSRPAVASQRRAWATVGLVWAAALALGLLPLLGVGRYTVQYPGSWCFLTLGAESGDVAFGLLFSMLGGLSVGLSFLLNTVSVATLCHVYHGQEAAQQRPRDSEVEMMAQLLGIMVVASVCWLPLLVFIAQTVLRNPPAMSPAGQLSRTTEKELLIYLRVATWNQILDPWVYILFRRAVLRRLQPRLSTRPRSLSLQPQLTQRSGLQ

Where a SMILES comes first, the peptide text is derived from it. Some results are limits rather than exact numbers.

Usually AC50 stands for the midpoint of the concentration-response curve, whichever way the signal moves. High values mean weaker potency, low ones greater potency.
Note: assay procedure not described here.

Chain of Beta-1 adrenergic receptor (P08588 whole entry): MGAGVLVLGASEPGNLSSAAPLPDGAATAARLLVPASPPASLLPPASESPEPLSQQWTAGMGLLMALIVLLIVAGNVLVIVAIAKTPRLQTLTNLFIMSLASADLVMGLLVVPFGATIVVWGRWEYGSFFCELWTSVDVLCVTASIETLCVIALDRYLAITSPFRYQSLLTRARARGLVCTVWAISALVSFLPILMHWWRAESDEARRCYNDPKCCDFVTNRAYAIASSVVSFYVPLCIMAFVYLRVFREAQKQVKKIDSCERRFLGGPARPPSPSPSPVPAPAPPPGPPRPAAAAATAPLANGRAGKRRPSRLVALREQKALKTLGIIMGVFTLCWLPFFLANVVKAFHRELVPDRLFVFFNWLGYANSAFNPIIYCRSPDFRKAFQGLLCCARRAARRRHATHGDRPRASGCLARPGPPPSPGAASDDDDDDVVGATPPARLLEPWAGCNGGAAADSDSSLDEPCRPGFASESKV

As for `CCN1C(=O)NC(c2ccccc2)C1=O` (stereo unspecified) [ETHOTOIN], the half-maximal activity concentration (AC50) in assay [1], in assay [2], in assay [3], in assay [4] and in assay [5] was more than 30 µM throughout.
With `CCCCC[C@H](O)CC[C@@H]1[C@H]2Cc3cccc(OCC(=O)O)c3C[C@H]2C[C@H]1O` [TREPROSTINIL], the AC50 in assay [6], in assay [1], in assay [2], in assay [3], in assay [4] and in assay [5] was more than 30 µM in each case.
On to `CS(=O)(=O)NC(=O)CCC/C=C\C[C@H]1C(=O)C[C@@H](O)[C@@H]1/C=C/[C@@H](O)COc1ccccc1` [SULPROSTONE], for which the AC50 in assay [1], in assay [2], in assay [3], in assay [4] and in assay [5] was more than 30 µM each time.
Turning to `CC(=O)Oc1cccc2c1C(=O)c1c(OC(C)=O)cc(C(=O)O)cc1C2=O` [DIACEREIN], the concentration at half-maximal activity (AC50) in assay [6] is more than 30 µM; in assay [1] it was more than 30 µM; in assay [2] it was more than 30 µM; in assay [4], 28 µM; in assay [5] it was 19 µM.
For `NS(=O)(=O)c1ccc(N2CCCCS2(=O)=O)cc1`, the AC50 in assay [6], in assay [1], in assay [2], in assay [3], in assay [4] and in assay [5] was more than 30 µM throughout.
As for `CC1=C(/C=C/C(C)=C/C=C/C(C)=C/C(=O)Oc2c(C)c(C)c3c(c2C)CCC(C)(CCCC(C)CCCC(C)CCCC(C)C)O3)C(C)(C)CCC1` (stereo unspecified) [TRETINOIN TOCOFERIL], the AC50 in assay [6], in assay [1], in assay [2], in assay [4] and in assay [5] was more than 30 µM in each case.
For the molecule `CCN(CC)Cc1nccn1-c1ccc([N+](=O)[O-])cc1C(=O)c1ccccc1Cl` [NIZOFENONE], the AC50 in assay [6], in assay [1], in assay [2], in assay [4] and in assay [5] was more than 30 µM each time.
As to `CCCCOC(=O)c1ccc(N)cc1` [BUTAMBEN], the AC50 in assay [6], in assay [1], in assay [2], in assay [3] and in assay [4] was more than 30 µM in each case.
Turning to `CNCCc1ccccn1` [BETAHISTINE], the AC50 in assay [6], in assay [2], in assay [3] and in assay [4] was more than 30 µM throughout.
For the molecule `CCCCCCCC(=O)CC[C@@H]1[C@@H](C/C=C\CCCC(=O)O)[C@@H](O)C[C@H]1O` [UNOPROSTONE], the AC50 in assay [1], in assay [2], in assay [3], in assay [4] and in assay [5] was more than 30 µM in each case.
Turning to `CC(=O)OCC1=C(C(=O)O)N2C(=O)[C@@H](NC(=O)Cc3cccs3)[C@H]2SC1` [CEPHALOTHIN], the AC50 in assay [1], in assay [2], in assay [3], in assay [4] and in assay [5] was more than 30 µM in each case.
Consider `CCN(CC)CC(=O)Nc1c(C)cccc1C` [LIDOCAINE], for which the AC50 in assay [6] and in assay [4] was more than 30 µM throughout.
In the case of `CCC(=O)O[C@H](CC(=O)O)C[N+](C)(C)C` [LEVOCARNITINE PROPIONATE], the AC50 in assay [1], in assay [2], in assay [3], in assay [4] and in assay [5] was more than 30 µM throughout.
On to `O=C(O)c1ccc2nc(-c3cc(Cl)cc(Cl)c3)oc2c1`, for which the AC50 in assay [6], in assay [1], in assay [2], in assay [4] and in assay [5] was more than 30 µM each time.
With `O=C(O)CCCC[C@@H]1SC[C@@H]2NC(=O)N[C@@H]21` [BIOTIN], the AC50 in assay [6], in assay [2], in assay [3], in assay [4] and in assay [5] was more than 10 µM in each case.
With `COC(=O)c1ccc2c(c1)NC(=O)/C2=C(\Nc1ccc(N(C)C(=O)CN2CCN(C)CC2)cc1)c1ccccc1` [NINTEDANIB], the half-maximal activity concentration (AC50) was more than 30 µM in assay [1], more than 30 µM in assay [2], more than 10 µM in assay [4] and more than 30 µM in assay [5].
Turning to `CO/N=C(\C(=O)N[C@@H]1C(=O)N2C(C(=O)O)=C(CSc3nc(C)c(CC(=O)O)s3)CS[C@H]12)c1csc(N)n1` [CEFODIZIME], the AC50 in assay [6], in assay [1], in assay [2], in assay [4] and in assay [5] was more than 30 µM each time.
Turning to `CN(C)CCOCC(=O)NC12CC3CC(CC(C3)C1)C2` [TROMANTADINE], the AC50 in assay [6], in assay [1], in assay [2], in assay [4] and in assay [5] was more than 30 µM throughout.
`CC1=C(C(=O)O)N2C(=O)[C@@H](NC(=O)[C@H](N)C3=CCC=CC3)[C@H]2SC1` [CEPHRADINE]: the AC50 is more than 30 µM in assay [1], more than 30 µM in assay [2], more than 10 µM in assay [4] and more than 30 µM in assay [5].
Turning to `O=C(O)c1nn(Cc2ccc(Cl)cc2Cl)c2ccccc12` [LONIDAMINE], the AC50 in assay [1], in assay [2], in assay [3], in assay [4] and in assay [5] was more than 30 µM in each case.
`CO/N=C(\C(=O)N[C@@H]1C(=O)N2C(C(=O)[O-])=C(C[n+]3ccc(N)n3CCO)CS[C@H]12)c1csc(N)n1` [CEFOSELIS]: the AC50 in assay [6], in assay [1], in assay [2], in assay [4] and in assay [5] was more than 30 µM throughout.
In the case of `CCCCOC(=O)C(=O)Nc1cccc(-c2nnn[nH]2)c1` [TAZANOLAST], the AC50 in assay [6], in assay [1], in assay [2], in assay [4] and in assay [5] was more than 30 µM in each case.
As for `C[C@H](N)C(=O)N[C@@H](CCC(N)=O)C(=O)O` [ALANYL GLUTAMINE] (H-Ala-Gln-OH), the AC50 in assay [6], in assay [1], in assay [2], in assay [4] and in assay [5] was more than 30 µM in each case.
Turning to `CC(=O)OCC(=O)[C@@]1(O)CC[C@H]2[C@@H]3CCC4=CC(=O)CC[C@]4(C)[C@@]3(F)[C@@H](O)C[C@@]21C` [FLUDROCORTISONE ACETATE], the AC50 in assay [6], in assay [1], in assay [2], in assay [3] and in assay [4] was more than 30 µM throughout.
